≈ marks a conversion by molar mass, not a printed value.
Key:
Mycobacterium kansasii = test: Antimycobacterial activity against Mycobacterium kansasii; type: functional
Mycobacterium avium [1] = test: Antimycobacterial activity against Mycobacterium avium; type: functional
[2] = test system: Mycobacterium tuberculosis; test: Antimycobacterial activity against Mycobacterium tuberculosis; type: functional; conditions: Mycobacterium tuberculosis
[3] = test system: Mycobacterium tuberculosis; test: Antimycobacterial activity against Mycobacterium tuberculosis in presence of isoniazid; type: functional
[4] = test system: Mycobacterium tuberculosis; test: Antimycobacterial activity against Mycobacterium tuberculosis in presence of ethambutol; type: functional
[5] = test system: Mycobacterium tuberculosis; test: Antimycobacterial activity against Mycobacterium tuberculosis H37Rv by microplate alamar blue assay; type: functional
Mycobacterium = test: Antimycobacterial activity against Mycobacterium; type: functional
[6] = test system: Mycobacterium tuberculosis; test: Antimycobacterial activity against Mycobacterium tuberculosis H37Rv at 50 ug/ml relative to control; type: functional
Mycolicibacterium vaccae = test: Antimycobacterial activity against Mycobacterium vaccae; type: functional
[7] = test system: Mycobacterium tuberculosis; test: Antimycobacterial activity against Mycobacterium tuberculosis Rv3547; type: functional
[8] = test system: Mycolicibacterium smegmatis; test: Antimycobacterial activity against Mycobacterium smegmatis; type: functional; conditions: for MIC: Mycolicibacterium smegmatis
Mycolicibacterium phlei = test: Antimycobacterial activity against Mycobacterium phlei; type: functional
Mycobacterium sp. = test: Antimycobacterial activity against Mycobacterium sp.; type: functional
[9] = test system: Mycobacterium intracellulare; test: Antimycobacterial activity against Mycobacterium intracellulare; type: functional, organism-based
[10] = test system: Mycobacterium tuberculosis; test: Antimycobacterial activity against Mycobacterium tuberculosis H37Rv; type: functional
[11] = test system: Mycobacterium tuberculosis; test: Antimycobacterial activity against Mycobacterium tuberculosis H37Ra; type: functional
[12] = test system: Mycobacterium tuberculosis; test: Antimycobacterial activity against MDR/XDR Mycobacterium tuberculosis; type: functional
[13] = test system: Mycobacterium tuberculosis; test: Antimycobacterial activity against Mycobacterium tuberculosis H37Ra by green fluorescent protein microplate assay; type: functional
[14] = test system: Mycobacterium tuberculosis; test: Antimycobacterial activity against Mycobacterium tuberculosis rv0678; type: functional
[15] = test system: Mycolicibacterium fortuitum; test: Antimycobacterial activity against Mycobacterium fortuitum; type: functional
[16] = test system: Mycolicibacterium smegmatis; test: Antimycobacterial activity against Mycobacterium smegmatis in presence of banegasine; type: functional
[17] = test system: Mycobacterium tuberculosis; test: Antimycobacterial activity against Mycobacterium tuberculosis in presence of banegasine; type: functional
Mycobacterium avium [18] = test: Antimycobacterial activity against Mycobacterium avium in presence of banegasine; type: functional

Structure (SMILES): c1cncc(-c2ncc(-c3ccc4c(c3)OCO4)o2)c1
- MIC (Mycobacterium kansasii): 25 mg/L (≈ 93.9 µM)
- MIC (Mycobacterium avium [1]): 25 mg/L (≈ 93.9 µM)
- MIC [2]: 25 mg/L (≈ 93.9 µM)

Structure (SMILES): COc1ccc2cc1Oc1ccc(cc1)C[C@H]1c3cc(c(OC)cc3CCN1C)Oc1c(OC)c(OC)cc3c1[C@H](C2)N(C)CC3 [FANCHININ]
- MIC [3]: 0.25 mg/L
- MIC [4]: 0.25 mg/L

Structure (SMILES): CCCCCCCCC[C@@H]1C[C@@H]2CC[C@H]3[C@@H](C(=O)O[C@H](C)CCCCCCC[C@@H]4C[C@@H]5CC[C@@H]6C[C@H](C)NC(=N4)N65)[C@@H](C)N=C(N1)N23
- MIC [5]: 3.18 mg/L (≈ 4.87 µM)

Structure (SMILES): COC1=C(Br)[C@@H](O)[C@]2(C=C1Br)CC(C(=O)NCCCOc1c(Br)cc(C(O)CNC(=O)C3=NO[C@@]4(C=C(Br)C(OC)=C(Br)[C@H]4O)C3)cc1Br)=CO2 (stereo partly drawn)
- MIC (Mycobacterium): 8 mg/L

Structure (SMILES): CC[C@@H]1[C@@H]2CCN3CC[C@@]4(C(=C2C(=O)OC)Nc2ccccc24)[C@@H]13
- inhibition at 50 µg/mL [6]: 50%

Structure (SMILES): CC/C=C(\C)C[C@H](C)C[C@H](C)/C(O)=C1/C(=O)N[C@@H](Cc2ccc(O)cc2)C1=O
- MIC (Mycolicibacterium vaccae): 6.25 mg/L (≈ 16.2 µM)

Structure (SMILES): C[C@@]1(COc2ccc(N3CCC(Oc4ccc(OC(F)(F)F)cc4)CC3)cc2)Cn2cc([N+](=O)[O-])nc2O1
- MIC [7]: 0.006 mg/L (≈ 0.0112 µM)

Structure (SMILES): O=Cc1ccc2[nH]c3ccccc3c2c1
- MIC [5]: 42.3 mg/L (≈ 217 µM)
- MIC [2]: 100 mg/L (≈ 512 µM)

Structure (SMILES): COC(=O)[C@@]1(c2cc3ccccc3[nH]2)COCC=C2CN(C)CC[C@@H]21 [6,7-SECO-ANGUSTILOBINE B]
- inhibition at 50 µg/mL [6]: 50%

Structure (SMILES): COc1ccc2[nH]c3cc(O)c(C=O)cc3c2c1
- MIC [5]: 14.3 mg/L (≈ 59.3 µM)

Structure (SMILES): O=CNCCCCC(NC(=O)C1COC(c2ccccc2O)=N1)C(=O)O (stereo not drawn) [TRANSVALENCIN Z]
- MIC [8]: 0.125 mg/L (≈ 0.344 µM)

Structure (SMILES): O=C1C=CC2=NC=CC3c4ccccc4N1C23 (stereo not drawn)
- MIC [8]: 8 mg/L (≈ 36 µM)
- MIC (Mycolicibacterium phlei): 8 mg/L (≈ 36 µM)

Structure (SMILES): CC(C)=CCc1c(O)ccc2[nH]c3ccc(C=O)cc3c12 [MICROMELINE]
- MIC [5]: 31.5 mg/L (≈ 113 µM)

Structure (SMILES): O=C1c2ccccc2-c2nccc3ccnc1c23 [SAMPANGINE]
- MIC (Mycobacterium sp.): 0.78 mg/L (≈ 3.36 µM)

Structure (SMILES): Oc1cccc2c1[nH]c1c(C3=C[C@@]4(O)CC/C=C\CCCCN5CCC3[C@]3(C[C@@H]6/C=C\CCCCN6[C@H]34)C5)nccc12 (stereo partly drawn)
- IC50 [9]: 3.5 mg/L (≈ 6.2 µM)
- MIC [10]: 0.4 mg/L (≈ 0.708 µM)

Structure (SMILES): CC[C@H]1C[C@H]2C[C@H]3c4[nH]c5ccc(OC)cc5c4CCN(C2)C13
- MIC (Mycobacterium sp.): 50 mg/L (≈ 161 µM)

Structure (SMILES): C=C(c1cc2ccccc2[nH]1)[C@H]1CCN(C)C/C1=C\CO
- inhibition at 50 µg/mL [6]: 50%

Structure (SMILES): CC/C=C(\C)C[C@H](C)C[C@H](C)/C(O)=C1/C(=O)N[C@@H]([C@@H](O)c2ccc(O)cc2)C1=O
- MIC (Mycolicibacterium vaccae): 6.25 mg/L (≈ 15.6 µM)

Structure (SMILES): COc1cnc2c3c(nccc13)C(=O)c1ccccc1-2
- MIC (Mycobacterium sp.): 1.56 mg/L (≈ 5.95 µM)

Structure (SMILES): CC(C)=CCOc1ccc(C2=C(Cc3ccccc3)C(=O)N(O)C2=O)cc1
- MIC (Mycolicibacterium phlei): 25 mg/L (≈ 68.8 µM)

Structure (SMILES): O=C1C=CC2=NC=CC3c4cccc(O)c4N1C23 (stereo not drawn)
- MIC [8]: 8 mg/L (≈ 33.6 µM)
- MIC (Mycolicibacterium phlei): 8 mg/L (≈ 33.6 µM)

Structure (SMILES): COC1=C(Br)[C@@H](O)[C@]2(C=C1Br)CC(C(=O)NC[C@@H](O)COc1c(Br)cc(C(O)CNC(=O)C3=NO[C@@]4(C=C(Br)C(OC)=C(Br)[C@H]4O)C3)cc1Br)=CO2 (stereo partly drawn)
- MIC (Mycobacterium): 7.9 mg/L

Structure (SMILES): O=C(/C=C/C=C/c1ccc2c(c1)OCO2)N1CCCCC1 [PIPERINE]
- MIC [8]: 128 mg/L (≈ 449 µM)

Structure (SMILES): c1ccc2c(c1)CC1NCCc3cc4c(c-2c31)OCO4 (stereo not drawn)
- MIC (Mycobacterium sp.): 12 mg/L (≈ 45.2 µM)

Structure (SMILES): COc1ccc2c(c1)[nH]c1cc(O)c(C=O)cc12
- MIC [2]: 100 mg/L (≈ 415 µM)
- MIC [11]: 25 mg/L (≈ 104 µM)

Structure (SMILES): CS1(C2=CC(=O)C3=C(C2)c2nccc4cccc(c24)N3)CCC(=O)OC1 (stereo not drawn)
- MIC (Mycobacterium): 2.1 µM

Structure (SMILES): COc1ccc2c3c(c4cc(OC)c(OC)cc4c2c1)CN1CCCC1C3 (stereo not drawn) [(+/-)-DEOXYTYLOPHORININE]
- MIC [12]: 6.25 mg/L (≈ 17.2 µM)

Structure (SMILES): O=C([C@H]1[C@H](/C=C/c2ccc3c(c2)OCO3)[C@H](c2ccc3c(c2)OCO3)C=C[C@H]1C(=O)N1CCCCC1)N1CCCCC1
- MIC [11]: 12.5 mg/L (≈ 21.9 µM)

Structure (SMILES): COc1ccc2cc3[n+](cc2c1OC)CCc1cc2c(cc1-3)OCO2.[Cl-] [BERBERINE CHLORIDE]
- MIC [9]: 0.78 mg/L
- MIC [8]: 0.78 mg/L
- MIC [2]: 25 mg/L

Structure (SMILES): CC[C@H]1C=CCC[C@@]2(C[C@@H]3CC[C@@H]4[C@H](C(=O)OCCCCCCCCCCCCCCCC(=O)N(CCCN)CC(O)CCN)[C@]5(CCC[C@@H](C)O5)N=C(N2)N34)O1 (stereo partly drawn)
- MIC [5]: 46.5 mg/L (≈ 58 µM)

Structure (SMILES): CC(C)=CCc1c(O)c(C=O)cc2c1[nH]c1cc(O)ccc12 [7-HYDROXYHEPTAPHYLLINE]
- MIC [13]: 25 mg/L (≈ 84.6 µM)

Structure (SMILES): COC(=O)c1cc2c(o1)-c1nccc3c1c(nc1ccccc13)C2=O
- MIC (Mycobacterium): 0.61 µM

Structure (SMILES): CC(C)/N=c1\cc2n(-c3ccc(Cl)cc3)c3ccccc3nc-2cc1Nc1ccc(Cl)cc1 [CLOFAZIMINE]
- MIC [14]: 0.12 mg/L (≈ 0.253 µM)

Structure (SMILES): Oc1ccc2c(c1)CC1NCCc3cc4c(c-2c31)OCO4 (stereo not drawn)
- MIC (Mycobacterium sp.): 6 mg/L (≈ 21.3 µM)

Structure (SMILES): CCCCCCc1cc(Cl)c(O)c(C(=O)c2c[nH]c(Cl)c2Cl)c1O
- MIC [8]: 0.05 mg/L (≈ 0.128 µM)
- MIC (Mycolicibacterium vaccae): 0.05 mg/L (≈ 0.128 µM)
- MIC [15]: 0.05 mg/L (≈ 0.128 µM)

Structure (SMILES): N[C@@H]1CONC1=O [CYCLOSERINE]
- MIC [8]: 3.12 mg/L (≈ 30.6 µM)
- MIC [10]: 12.5 mg/L (≈ 122 µM)
- MIC (Mycobacterium avium [1]): 3.12 mg/L (≈ 30.6 µM)
- MIC [2]: 3.12 mg/L (≈ 30.6 µM)
- MIC [15]: 3.12 mg/L (≈ 30.6 µM)

Structure (SMILES): O=Cc1cc2c3ccc(O)cc3[nH]c2c2ccoc12
- MIC [13]: 25 mg/L (≈ 99.5 µM)

Structure (SMILES): CC[C@H]1CN(C)[C@H]2Cc3c([nH]c4ccccc34)C(=O)C[C@@H]1[C@@H]2C(=O)OC
- MIC (Mycobacterium sp.): 128 mg/L (≈ 361 µM)

Structure (SMILES): COC(=O)[C@@]12COCC=C3CN(CC[C@@H]31)Cc1c2[nH]c2ccccc12
- inhibition at 50 µg/mL [6]: 50%

Structure (SMILES): COc1ccc2[nH]c3ccc(C=O)cc3c2c1
- MIC [5]: 15.6 mg/L (≈ 69.3 µM)

Structure (SMILES): C/C=C1\CN2CC[C@@H]1[C@](CO)(C(=O)OC)c1[nH]c3ccccc3c1C2
- inhibition at 50 µg/mL [6]: 50%

Structure (SMILES): CC[C@H]1C[C@H]2C[N@]3CCc4c([nH]c5ccc(OC)cc45)[C@](C(=O)OC)(C2)[C@H]13
- MIC (Mycobacterium sp.): 50 mg/L (≈ 136 µM)

Structure (SMILES): Cc1ccnc2c1C(=O)c1ccccc1C2=O [CLEISTOPHOLINE]
- MIC (Mycobacterium sp.): 12.5 mg/L (≈ 56 µM)

Structure (SMILES): OC1CCCC/C=C\CCCC[C@@H]2CN3CCCC/C=C\CCCC[C@H]4C[C@H](CN(C1)C4)[C@H]2CC3 (stereo partly drawn)
- IC [8]: 12.5 µg/mL

Structure (SMILES): C=C[C@H]1C=C[C@H]2[C@@H]3C[C@H](C)CC[C@H]3[C@@H]3Oc4ccc(cc4)C[C@]4(O)NC(=O)[C@H](C(=O)[C@@H]1[C@H]23)C4N1C(=O)[C@H]2C(=O)[C@H]3[C@@H](C=C)C=C[C@H]4[C@@H]5C[C@H](C)CC[C@H]5[C@H](Oc5ccc(cc5)C[C@@H]2C1=O)[C@@H]43 (stereo partly drawn) [HIRSUTELLONE F]
- MIC [5]: 3.12 mg/L (≈ 3.5 µM)

Structure (SMILES): COc1cc2c(cc1O)CC[n+]1cc3c(OC)c(OC)ccc3cc1-2 [JATRORRHIZINE]
- MIC (Mycobacterium sp.): < 100 mg/L

Structure (SMILES): O=[N+]([O-])c1c(Cl)cccc1-c1c[nH]cc1Cl [PYRROLNITRIN]
- IC [16]: 0.075 µg/mL
- IC [17]: 0.075 µg/mL
- MIC [8]: 4 mg/L (≈ 15.6 µM)
- MIC (Mycobacterium avium [1]): 4 mg/L (≈ 15.6 µM)
- MIC [2]: 4 mg/L (≈ 15.6 µM)
- IC (Mycobacterium avium [18]): 0.075 µg/mL

Structure (SMILES): COC(=O)[C@@]12COCC=C3C[N+]([O-])(CC[C@@H]31)Cc1c2[nH]c2ccccc12
- inhibition at 50 µg/mL [6]: 50%

Structure (SMILES): COc1ccc2c(c1)CC1NCCc3cc4c(c-2c31)OCO4 (stereo not drawn)
- MIC (Mycobacterium sp.): 12 mg/L (≈ 40.6 µM)

Structure (SMILES): O=C1CCCN2[C@@H](CC1)C[C@]13CN4CCCC/C=C\CC[C@](O)(C=C(c5nccc6c5[nH]c5c(O)cccc56)[C@@H]1CC4)[C@H]23
- IC50 [9]: 3.5 mg/L (≈ 6.03 µM)
- MIC [10]: 0.4 mg/L (≈ 0.689 µM)

Structure (SMILES): COC(=O)c1cc2c(s1)-c1nccc3c1c(nc1ccccc13)C2=O
- MIC (Mycobacterium): 0.58 µM

From ChEMBL document CHEMBL5260811, “Drug development against tuberculosis: Impact of alkaloids” (Eur J Med Chem, 2017)
